Reference: PubChem BioAssay (NCI)
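Exposure lasted 48 hours, with cells grown in 96-well plates and compounds tested at five concentrations. At the GI50, growth is halved. Definition used: TGI = concentration required for complete inhibition of growth.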

Tests used:
Test in all cases: NCI anticancer screen, dose series, 48 h
HCT-15 colon = system: HCT-15 colon
EKVX NSCLC = system: EKVX NSCLC
HT29 colon = system: HT29 colon
SK-MEL-5 melanoma = system: SK-MEL-5 melanoma
MDA-MB-231 breast = system: MDA-MB-231 breast
IGROV1 ovarian = system: IGROV1 ovarian
NCI/ADR-RES ovarian = system: NCI/ADR-RES ovarian
M14 melanoma = system: M14 melanoma
DU-145 prostate = system: DU-145 prostate
HL-60(TB) leukemia = system: HL-60(TB) leukemia
SK-MEL-2 melanoma = system: SK-MEL-2 melanoma
UO-31 renal = system: UO-31 renal
SF-539 CNS = system: SF-539 CNS
NCI-H460 lung = system: NCI-H460 lung
HCC-2998 colon = system: HCC-2998 colon
SNB-75 CNS = system: SNB-75 CNS
CCRF-CEM leukemia = system: CCRF-CEM leukemia
OVCAR-4 ovarian = system: OVCAR-4 ovarian
ACHN renal = system: ACHN renal
HCT-116 colon = system: HCT-116 colon
786-0 renal = system: 786-0 renal
OVCAR-3 ovarian = system: OVCAR-3 ovarian
HOP-62 NSCLC = system: HOP-62 NSCLC
HS 578T breast = system: HS 578T breast
SNB-19 CNS = system: SNB-19 CNS
T-47D breast = system: T-47D breast
RPMI-8226 leukemia = system: RPMI-8226 leukemia
OVCAR-5 ovarian = system: OVCAR-5 ovarian
TK-10 renal = system: TK-10 renal
UACC-62 melanoma = system: UACC-62 melanoma
A498 renal = system: A498 renal
SF-268 CNS = system: SF-268 CNS
SN12C renal = system: SN12C renal
COLO 205 colon = system: COLO 205 colon
SW-620 colon = system: SW-620 colon
MALME-3M melanoma = system: MALME-3M melanoma
LOX IMVI melanoma = system: LOX IMVI melanoma
CAKI-1 renal = system: CAKI-1 renal
MCF7 breast = system: MCF7 breast
KM12 colon = system: KM12 colon
U251 CNS = system: U251 CNS
K-562 leukemia = system: K-562 leukemia
PC-3 prostate = system: PC-3 prostate
SK-OV-3 ovarian = system: SK-OV-3 ovarian
OVCAR-8 ovarian = system: OVCAR-8 ovarian
UACC-257 melanoma = system: UACC-257 melanoma
NCI-H522 lung = system: NCI-H522 lung
MDA-MB-435 = system: MDA-MB-435
RXF 393 renal = system: RXF 393 renal
SK-MEL-28 melanoma = system: SK-MEL-28 melanoma
SR leukemia = system: SR leukemia
NCI-H226 lung = system: NCI-H226 lung
MOLT-4 leukemia = system: MOLT-4 leukemia
HOP-92 NSCLC = system: HOP-92 NSCLC
BT-549 breast = system: BT-549 breast
SF-295 CNS = system: SF-295 CNS

c1ccc2c(NCCCn3ccnc3)c3oc4ccccc4c3nc2c1
GI50 (HCT-15 colon): 1.79 µM
TGI (HCT-15 colon): 10.6 µM
GI50 (EKVX NSCLC): 2.8 µM
TGI (EKVX NSCLC): 11 µM
GI50 (HT29 colon): 1.05 µM
TGI (HT29 colon): 3.08 µM
GI50 (SK-MEL-5 melanoma): 2.27 µM
TGI (SK-MEL-5 melanoma): 5.14 µM
GI50 (MDA-MB-231 breast): 2.04 µM
TGI (MDA-MB-231 breast): 7.73 µM
GI50 (IGROV1 ovarian): 2.82 µM
TGI (IGROV1 ovarian): 10.8 µM
GI50 (NCI/ADR-RES ovarian): 1.87 µM
TGI (NCI/ADR-RES ovarian): 6.18 µM
GI50 (M14 melanoma): 1.89 µM
TGI (M14 melanoma): 3.56 µM
GI50 (DU-145 prostate): 2.63 µM
TGI (DU-145 prostate): 15.5 µM
GI50 (HL-60(TB) leukemia): 2.5 µM
TGI (HL-60(TB) leukemia): 7.72 µM
GI50 (SK-MEL-2 melanoma): 1.85 µM
TGI (SK-MEL-2 melanoma): 3.6 µM
GI50 (UO-31 renal): 1.42 µM
TGI (UO-31 renal): 3.28 µM
GI50 (SF-539 CNS): 1.71 µM
TGI (SF-539 CNS): 3.94 µM
GI50 (NCI-H460 lung): 1.27 µM
TGI (NCI-H460 lung): 8.27 µM
GI50 (HCC-2998 colon): 1.36 µM
TGI (HCC-2998 colon): 2.99 µM
GI50 (SNB-75 CNS): 1.85 µM
TGI (SNB-75 CNS): 4.93 µM
GI50 (CCRF-CEM leukemia): 2.35 µM
TGI (CCRF-CEM leukemia): 18 µM
GI50 (OVCAR-4 ovarian): 2.12 µM
TGI (OVCAR-4 ovarian): 7.47 µM
GI50 (ACHN renal): 0.942 µM
TGI (ACHN renal): 10.5 µM
GI50 (HCT-116 colon): 0.518 µM
TGI (HCT-116 colon): 10.3 µM
GI50 (786-0 renal): 2.57 µM
TGI (786-0 renal): 13.2 µM
GI50 (OVCAR-3 ovarian): 3.38 µM
TGI (OVCAR-3 ovarian): > 100 µM
GI50 (HOP-62 NSCLC): 1.59 µM
TGI (HOP-62 NSCLC): 4.3 µM
GI50 (HS 578T breast): 2.79 µM
TGI (HS 578T breast): 14 µM
GI50 (SNB-19 CNS): 2.6 µM
TGI (SNB-19 CNS): 14.2 µM
GI50 (T-47D breast): 2.31 µM
TGI (T-47D breast): 8.53 µM
GI50 (RPMI-8226 leukemia): 2.04 µM
TGI (RPMI-8226 leukemia): 5.62 µM
GI50 (OVCAR-5 ovarian): 1.99 µM
TGI (OVCAR-5 ovarian): 6.54 µM
GI50 (TK-10 renal): 3.29 µM
TGI (TK-10 renal): 8.62 µM
GI50 (UACC-62 melanoma): 2.01 µM
TGI (UACC-62 melanoma): 4.62 µM
GI50 (A498 renal): 2.89 µM
TGI (A498 renal): 9.13 µM
GI50 (SF-268 CNS): 2.2 µM
TGI (SF-268 CNS): 12.1 µM
GI50 (SN12C renal): 1.7 µM
TGI (SN12C renal): 11 µM
GI50 (COLO 205 colon): 1.42 µM
TGI (COLO 205 colon): 3.04 µM
GI50 (SW-620 colon): 0.792 µM
TGI (SW-620 colon): 10.9 µM
GI50 (MALME-3M melanoma): 2.66 µM
TGI (MALME-3M melanoma): 6.23 µM
GI50 (LOX IMVI melanoma): 1.35 µM
TGI (LOX IMVI melanoma): 3.3 µM
GI50 (CAKI-1 renal): 1.7 µM
TGI (CAKI-1 renal): 6.56 µM
GI50 (MCF7 breast): 1.78 µM
TGI (MCF7 breast): 7.62 µM
GI50 (KM12 colon): 2.51 µM
TGI (KM12 colon): > 100 µM
GI50 (U251 CNS): 2.33 µM
TGI (U251 CNS): 10.3 µM
GI50 (K-562 leukemia): 1.81 µM
TGI (K-562 leukemia): > 100 µM
GI50 (PC-3 prostate): 2.08 µM
TGI (PC-3 prostate): 6.85 µM
GI50 (SK-OV-3 ovarian): 2.3 µM
TGI (SK-OV-3 ovarian): 6.85 µM
GI50 (OVCAR-8 ovarian): 1.58 µM
TGI (OVCAR-8 ovarian): 4.55 µM
GI50 (UACC-257 melanoma): 2.35 µM
TGI (UACC-257 melanoma): 6 µM
GI50 (NCI-H522 lung): 1.58 µM
TGI (NCI-H522 lung): 3.63 µM
GI50 (MDA-MB-435): 2.13 µM
TGI (MDA-MB-435): 5.2 µM
GI50 (RXF 393 renal): 1.41 µM
TGI (RXF 393 renal): 3.23 µM
GI50 (SK-MEL-28 melanoma): 2.15 µM
TGI (SK-MEL-28 melanoma): 4.32 µM
GI50 (SR leukemia): 1.73 µM
TGI (SR leukemia): > 100 µM
GI50 (NCI-H226 lung): 1.94 µM
TGI (NCI-H226 lung): 4.7 µM
GI50 (MOLT-4 leukemia): 0.524 µM
TGI (MOLT-4 leukemia): 71.8 µM
GI50 (HOP-92 NSCLC): 1.11 µM
TGI (HOP-92 NSCLC): 3.68 µM
GI50 (BT-549 breast): 1.98 µM
TGI (BT-549 breast): 4.75 µM
GI50 (SF-295 CNS): 2.53 µM
TGI (SF-295 CNS): 10.5 µM
